Calls of active or inactive are those of the source.
Tests used:
[1] = target: Peroxisome proliferator-activated receptor gamma/Nuclear receptor coactivator 3 (Homo sapiens, UniProt P37231); type: functional;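 also: agonist potency for raising coactivator recruitment to the receptor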
[2] = target: Peroxisome proliferator-activated receptor gamma/Nuclear receptor coactivator 2 (Homo sapiens, UniProt P37231); type: functional;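 also: agonist potency for raising coactivator recruitment to the receptor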
[3] = target: Peroxisome proliferator-activated receptor gamma/Nuclear receptor coactivator 1 (Homo sapiens, UniProt P37231); type: functional;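 also: agonist potency as compounds enhance coactivator SRC-1 recruitment to PPARgamma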
HeLa = experiment: ATP-based viability loss in HeLa cells – cell-based, CellTiter-Glo luminescence, cherry-pick samples, cytotoxicity control for MITF activator project, dose response (AID 540259); type: functional; conditions: Homo sapiens
Cytochrome P450 2C9 [4] = target: T1, Cytochrome P450 2C9 (Homo sapiens, UniProt P11712)
[5] = target: Eukaryotic translation initiation factor 4E (Mus musculus, UniProt P63073); experiment: blockers of eIF4G binding by eIF4E – biochemical, TR-FRET, dose response (AID 855); type: functional;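 also: potency for disrupting eIF4E binding to eIF4GI seen as loss of FRET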
[6] = Trypanosoma cruzi growth suppression in host cells – NIH3T3 host cells, beta-gal luminescence, confirmation (AID 2044); type: functional, cell-based;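 also: intracellular parasites grown in NIH/3T3 mouse fibroblasts as host cells; luminescent beta-galactosidase reporter signal from transgenic T. cruzi replicating inside host cells; inhibitors lower the luminescence signal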
[7] = target: T2, Ubiquitin-conjugating enzyme E2 N (Homo sapiens, UniProt P61088); type: functional
T2 sequence (P61088 whole entry): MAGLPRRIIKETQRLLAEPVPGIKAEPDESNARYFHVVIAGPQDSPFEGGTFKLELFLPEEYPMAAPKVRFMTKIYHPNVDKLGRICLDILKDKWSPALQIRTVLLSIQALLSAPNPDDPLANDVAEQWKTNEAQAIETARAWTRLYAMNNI

Bcl-2-related protein A1 = target: T3, Bcl-2-related protein A1 (Mus musculus, UniProt Q07440); type: functional;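 also: confirmatory dose–response counterscreen on Bfl-1, used to check hits from a UBC13 polyubiquitin inhibitor campaign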
T3 sequence (Q07440 whole entry): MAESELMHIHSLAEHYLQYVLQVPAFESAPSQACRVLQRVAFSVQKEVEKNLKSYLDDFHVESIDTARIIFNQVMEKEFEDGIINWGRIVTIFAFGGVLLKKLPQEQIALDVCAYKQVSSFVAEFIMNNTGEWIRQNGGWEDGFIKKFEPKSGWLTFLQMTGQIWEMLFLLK

[8] = NIH3T3 cell viability loss – ATP luminescence, mouse fibroblasts, counter-screen, dose response (AID 2010); type: functional, cell-based;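 also: cells exposed to compound for about 90 hours before reading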
[9] = target: T2, Ubiquitin-conjugating enzyme E2 N; type: functional; remark: listed apart in the source
[10] = target: 72 kDa type IV collagenase (Homo sapiens, UniProt P08253); experiment: Dose Response validation of uHTS RPN11 inhibitor hits using a MMP-2 Fluorescence assay.; type: functional
[11] = target: 26S proteasome non-ATPase regulatory subunit 14 (Homo sapiens, UniProt O00487); experiment: inhibition of proteasome subunit RPN11 – biochemical, fluorescence polarization, uHTS hits, confirmation (AID 602368); type: functional
Prothrombin = Prothrombin (Bos taurus, UniProt P00735); experiment: thrombin protease inhibitors – biochemical, fluorescence polarization, uHTS hits, dose response (AID 602369); type: functional
[12] = bead-based luminescence quenchers, dual-tagged ARNT – biochemical, AlphaScreen, cherry-pick, artefact control for ARNT-TACC3 interaction inhibitor project, dose response (AID 651705); type: functional;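 also: AlphaScreen bead proximity signal that flags compounds interfering with the detection technology; potency reflects signal decrease which marks the compound as an assay artifact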
Nonstructural protein 1 = Nonstructural protein 1 (Influenza A virus, UniProt Q194T2); type: functional, Influenza A virus (A/California/07/2009(H1N1))
[13] = tested on: Streptococcus sp. 'group A'; experiment: Streptococcus pyogenes SK(-)GAS viability under kanamycin – luminescence, BacTiterGlo, confirmation, counter-screen for streptokinase expression inhibitor project, dose response (AID 1900); type: functional, organism-based
cells = type: functional
[14] = THP-1 cell cytotoxicity, dose response, cytotoxicity control for non-replicating M. tuberculosis project (AID 489025); type: functional
[15] = Vero E6 cell cytotoxicity, dose response, cytotoxicity control for non-replicating M. tuberculosis project, secondary assay (AID 492998); type: functional, VeroE6; conditions: Vero C1008
Streptococcus = experiment: GAS UMAA2166 growth inhibition – luminescence, BacTiterGlo, counter-screen for streptokinase expression inhibitor project, dose response (AID 1915); type: functional, organism-based;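 also: potency for reduction of bacterial viability or growth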
Escherichia coli = experiment: microbe, parasite or virus in culture
[16] = target: Ras and Rab interactor 1/Tyrosine-protein kinase ABL1 (Homo sapiens, UniProt P00519+Q13671); type: functional;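 also: biochemical TR-FRET dose-response test measuring inhibition of binding between Rin1 and Abl proteins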
[17] = target: T4, Rac GTPase-activating protein 1 (Homo sapiens, UniProt Q9H0H5); experiment: blockers of MgcRacGAP-driven Rac1 GTP hydrolysis – biochemical, ADP Hunter fluorescence, primary and confirmatory, confirmation (AID 624330); type: functional
T4 sequence (Q9H0H5 whole entry): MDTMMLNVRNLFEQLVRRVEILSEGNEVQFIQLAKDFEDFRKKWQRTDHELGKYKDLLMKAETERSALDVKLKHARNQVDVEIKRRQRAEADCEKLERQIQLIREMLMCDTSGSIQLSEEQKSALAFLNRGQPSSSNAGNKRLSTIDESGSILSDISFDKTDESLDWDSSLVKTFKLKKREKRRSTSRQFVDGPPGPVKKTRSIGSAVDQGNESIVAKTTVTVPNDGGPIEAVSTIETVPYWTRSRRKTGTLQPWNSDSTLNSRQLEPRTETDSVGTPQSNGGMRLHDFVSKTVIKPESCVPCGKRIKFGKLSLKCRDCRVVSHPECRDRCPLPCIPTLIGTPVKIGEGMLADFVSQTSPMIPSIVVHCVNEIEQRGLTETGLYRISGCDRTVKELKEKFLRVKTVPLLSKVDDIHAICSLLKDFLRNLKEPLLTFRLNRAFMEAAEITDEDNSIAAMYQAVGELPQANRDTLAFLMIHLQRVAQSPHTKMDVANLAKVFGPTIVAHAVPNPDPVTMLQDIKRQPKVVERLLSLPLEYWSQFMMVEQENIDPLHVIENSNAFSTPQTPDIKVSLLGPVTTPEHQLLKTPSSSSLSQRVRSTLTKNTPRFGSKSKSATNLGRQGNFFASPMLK

Cytochrome P450 1A2 = target: T5, Cytochrome P450 1A2 (Homo sapiens, UniProt P05177);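 also: PubChem cytochrome P450 panel assay, CYP1A2 panel member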
T5 sequence (P05177 whole entry): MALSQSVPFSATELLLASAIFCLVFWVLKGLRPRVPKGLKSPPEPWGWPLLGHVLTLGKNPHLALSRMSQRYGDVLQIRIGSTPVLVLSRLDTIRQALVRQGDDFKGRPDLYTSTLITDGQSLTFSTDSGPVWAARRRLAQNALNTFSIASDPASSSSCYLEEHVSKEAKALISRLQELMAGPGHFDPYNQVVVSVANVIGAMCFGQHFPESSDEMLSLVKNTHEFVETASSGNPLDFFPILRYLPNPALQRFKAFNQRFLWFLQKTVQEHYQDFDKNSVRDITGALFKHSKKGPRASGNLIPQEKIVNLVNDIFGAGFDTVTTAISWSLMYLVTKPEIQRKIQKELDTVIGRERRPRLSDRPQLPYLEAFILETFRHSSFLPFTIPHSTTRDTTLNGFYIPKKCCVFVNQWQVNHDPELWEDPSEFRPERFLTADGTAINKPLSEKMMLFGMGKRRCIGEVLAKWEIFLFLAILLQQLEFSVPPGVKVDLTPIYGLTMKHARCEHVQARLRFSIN

[18] = target: T6, Corticotropin-releasing factor receptor 2/Corticotropin-releasing factor-binding protein (Homo sapiens, UniProt P24387+Q13324); experiment: activators of CRF receptor 2 with binding protein – uHTS hits, confirmation (AID 602473); type: functional; conditions: read-out: EC50_Mean
T6 sequence (Q13324 whole entry): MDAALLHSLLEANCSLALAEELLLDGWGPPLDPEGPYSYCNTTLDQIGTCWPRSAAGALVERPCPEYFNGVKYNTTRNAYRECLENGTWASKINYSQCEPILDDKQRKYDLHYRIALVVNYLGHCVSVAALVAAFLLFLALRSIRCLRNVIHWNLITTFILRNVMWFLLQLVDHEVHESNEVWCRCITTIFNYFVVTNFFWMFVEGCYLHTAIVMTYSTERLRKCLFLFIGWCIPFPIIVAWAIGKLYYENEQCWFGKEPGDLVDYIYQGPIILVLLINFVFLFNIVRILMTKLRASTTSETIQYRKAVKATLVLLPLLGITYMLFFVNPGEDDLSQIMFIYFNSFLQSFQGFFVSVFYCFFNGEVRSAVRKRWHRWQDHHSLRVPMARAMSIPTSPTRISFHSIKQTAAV
T6 sequence (P24387 whole entry): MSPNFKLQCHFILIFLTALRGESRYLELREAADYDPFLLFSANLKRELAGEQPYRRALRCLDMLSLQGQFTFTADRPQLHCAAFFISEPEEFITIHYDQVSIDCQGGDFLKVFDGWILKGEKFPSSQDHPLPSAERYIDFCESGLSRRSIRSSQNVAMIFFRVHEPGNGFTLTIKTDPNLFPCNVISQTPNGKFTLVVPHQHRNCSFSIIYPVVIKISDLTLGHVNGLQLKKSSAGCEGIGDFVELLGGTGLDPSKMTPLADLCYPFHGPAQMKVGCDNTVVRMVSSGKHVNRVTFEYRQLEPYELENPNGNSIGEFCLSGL

[19] = target: T6, Corticotropin-releasing factor receptor 2/Corticotropin-releasing factor-binding protein; experiment: Dose Response confirmation of uHTS hits for small molecule antagonists of the CRF-binding protein and CRF-R2 receptor complex.; type: functional; conditions: read-out: IC50_Mean
Cytochrome P450 2C9 [20] = target: T1, Cytochrome P450 2C9; remark: listed apart in the source
[21] = viability of uninfected HEp-2 cells – cell-based, HTS, cytotoxicity control for RSV inhibitor project, dose response (AID 2410); type: functional; conditions: human respiratory syncytial virus

Eukaryotic translation initiation factor 4E, sequence (P63073 whole entry): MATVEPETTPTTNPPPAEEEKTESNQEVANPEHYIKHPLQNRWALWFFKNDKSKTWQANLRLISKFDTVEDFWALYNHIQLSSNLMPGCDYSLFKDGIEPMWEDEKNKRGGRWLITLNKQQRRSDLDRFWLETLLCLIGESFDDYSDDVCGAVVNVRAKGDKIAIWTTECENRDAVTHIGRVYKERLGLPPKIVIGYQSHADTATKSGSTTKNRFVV
26S proteasome non-ATPase regulatory subunit 14, sequence (O00487 whole entry): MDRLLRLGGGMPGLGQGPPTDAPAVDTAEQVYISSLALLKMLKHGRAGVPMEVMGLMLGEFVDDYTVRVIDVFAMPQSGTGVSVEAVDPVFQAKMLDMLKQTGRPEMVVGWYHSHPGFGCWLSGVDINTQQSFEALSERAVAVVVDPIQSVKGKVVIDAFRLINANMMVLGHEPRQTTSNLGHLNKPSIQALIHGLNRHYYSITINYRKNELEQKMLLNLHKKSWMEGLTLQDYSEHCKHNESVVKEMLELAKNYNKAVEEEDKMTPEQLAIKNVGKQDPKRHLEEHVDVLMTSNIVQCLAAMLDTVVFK
72 kDa type IV collagenase, sequence (P08253 whole entry): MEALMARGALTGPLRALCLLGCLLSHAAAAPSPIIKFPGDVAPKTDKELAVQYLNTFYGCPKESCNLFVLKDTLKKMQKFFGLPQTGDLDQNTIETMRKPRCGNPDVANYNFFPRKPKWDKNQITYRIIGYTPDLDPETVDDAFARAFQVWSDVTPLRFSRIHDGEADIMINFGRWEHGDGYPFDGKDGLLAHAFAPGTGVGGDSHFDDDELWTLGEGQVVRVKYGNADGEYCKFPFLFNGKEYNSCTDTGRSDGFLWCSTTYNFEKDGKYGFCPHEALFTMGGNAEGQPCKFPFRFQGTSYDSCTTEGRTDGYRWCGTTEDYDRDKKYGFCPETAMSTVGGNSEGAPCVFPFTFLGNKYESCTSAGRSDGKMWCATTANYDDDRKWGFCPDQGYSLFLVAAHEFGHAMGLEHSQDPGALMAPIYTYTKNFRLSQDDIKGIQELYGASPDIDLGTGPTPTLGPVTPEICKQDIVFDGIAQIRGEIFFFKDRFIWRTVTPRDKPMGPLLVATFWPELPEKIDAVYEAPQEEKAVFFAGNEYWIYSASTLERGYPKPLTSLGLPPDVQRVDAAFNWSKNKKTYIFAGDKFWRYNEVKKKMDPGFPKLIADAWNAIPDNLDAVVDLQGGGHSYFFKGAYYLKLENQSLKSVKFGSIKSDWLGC
T1 sequence (P11712 whole entry): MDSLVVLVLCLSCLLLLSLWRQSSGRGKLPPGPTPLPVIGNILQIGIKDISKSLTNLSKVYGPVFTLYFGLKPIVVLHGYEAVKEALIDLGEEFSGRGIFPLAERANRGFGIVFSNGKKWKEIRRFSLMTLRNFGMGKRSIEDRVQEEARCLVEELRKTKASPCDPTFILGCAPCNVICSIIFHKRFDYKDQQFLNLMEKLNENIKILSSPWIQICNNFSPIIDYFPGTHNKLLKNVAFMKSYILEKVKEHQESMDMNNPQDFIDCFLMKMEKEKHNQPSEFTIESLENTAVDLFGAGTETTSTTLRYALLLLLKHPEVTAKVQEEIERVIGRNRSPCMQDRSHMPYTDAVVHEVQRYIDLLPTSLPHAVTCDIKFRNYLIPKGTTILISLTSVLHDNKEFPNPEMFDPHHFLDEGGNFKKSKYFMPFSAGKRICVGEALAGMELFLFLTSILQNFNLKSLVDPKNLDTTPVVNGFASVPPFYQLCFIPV
Ras and Rab interactor 1/Tyrosine-protein kinase ABL1, sequence (P00519 whole entry): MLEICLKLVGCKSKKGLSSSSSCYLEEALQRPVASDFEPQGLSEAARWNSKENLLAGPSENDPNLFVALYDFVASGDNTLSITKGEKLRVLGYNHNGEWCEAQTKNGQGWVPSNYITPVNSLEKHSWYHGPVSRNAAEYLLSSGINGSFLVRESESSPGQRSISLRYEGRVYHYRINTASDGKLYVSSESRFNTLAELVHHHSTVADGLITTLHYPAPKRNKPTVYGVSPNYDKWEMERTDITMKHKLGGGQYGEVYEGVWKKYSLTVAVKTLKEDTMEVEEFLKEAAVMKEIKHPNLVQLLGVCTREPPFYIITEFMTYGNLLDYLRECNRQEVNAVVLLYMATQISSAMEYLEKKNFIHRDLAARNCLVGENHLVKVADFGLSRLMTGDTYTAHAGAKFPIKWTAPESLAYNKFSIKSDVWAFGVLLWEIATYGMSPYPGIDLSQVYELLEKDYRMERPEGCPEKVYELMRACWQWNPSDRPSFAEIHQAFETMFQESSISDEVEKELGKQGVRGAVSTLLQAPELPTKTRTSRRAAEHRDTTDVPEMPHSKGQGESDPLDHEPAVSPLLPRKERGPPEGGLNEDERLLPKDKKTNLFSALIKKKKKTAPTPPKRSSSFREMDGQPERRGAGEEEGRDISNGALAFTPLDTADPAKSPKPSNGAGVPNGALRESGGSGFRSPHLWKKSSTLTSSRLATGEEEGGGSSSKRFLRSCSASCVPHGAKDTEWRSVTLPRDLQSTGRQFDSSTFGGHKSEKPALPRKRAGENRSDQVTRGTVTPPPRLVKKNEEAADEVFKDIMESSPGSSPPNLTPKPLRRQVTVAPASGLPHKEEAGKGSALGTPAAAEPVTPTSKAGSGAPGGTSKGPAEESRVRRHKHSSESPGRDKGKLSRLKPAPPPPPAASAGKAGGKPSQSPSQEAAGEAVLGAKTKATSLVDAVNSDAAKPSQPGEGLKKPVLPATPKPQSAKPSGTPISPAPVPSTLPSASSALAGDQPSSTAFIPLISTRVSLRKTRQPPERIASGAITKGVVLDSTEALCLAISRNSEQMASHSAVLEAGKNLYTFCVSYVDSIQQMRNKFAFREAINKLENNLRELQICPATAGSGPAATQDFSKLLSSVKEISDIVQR
Ras and Rab interactor 1/Tyrosine-protein kinase ABL1, sequence (Q13671 whole entry): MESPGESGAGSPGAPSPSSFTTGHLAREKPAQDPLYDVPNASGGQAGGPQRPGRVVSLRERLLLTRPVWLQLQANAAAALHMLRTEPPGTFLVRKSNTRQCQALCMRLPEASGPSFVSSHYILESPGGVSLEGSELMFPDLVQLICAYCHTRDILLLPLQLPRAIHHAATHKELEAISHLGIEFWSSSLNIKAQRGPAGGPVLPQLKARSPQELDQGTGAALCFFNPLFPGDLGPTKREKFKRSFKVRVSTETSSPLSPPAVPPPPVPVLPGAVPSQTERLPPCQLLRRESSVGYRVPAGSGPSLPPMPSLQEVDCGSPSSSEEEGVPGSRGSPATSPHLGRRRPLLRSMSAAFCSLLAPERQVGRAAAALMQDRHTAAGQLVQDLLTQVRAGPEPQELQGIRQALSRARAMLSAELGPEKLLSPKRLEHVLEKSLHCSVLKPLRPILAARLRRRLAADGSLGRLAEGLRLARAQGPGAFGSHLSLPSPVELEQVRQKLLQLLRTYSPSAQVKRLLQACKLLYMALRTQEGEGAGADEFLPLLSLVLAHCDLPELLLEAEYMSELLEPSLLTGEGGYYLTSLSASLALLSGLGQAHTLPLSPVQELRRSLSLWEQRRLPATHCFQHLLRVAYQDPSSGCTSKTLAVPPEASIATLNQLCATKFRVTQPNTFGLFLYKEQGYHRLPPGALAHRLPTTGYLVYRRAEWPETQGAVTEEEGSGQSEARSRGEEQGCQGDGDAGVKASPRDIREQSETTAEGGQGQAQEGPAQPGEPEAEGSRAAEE
Nonstructural protein 1, sequence (Q194T2 whole entry): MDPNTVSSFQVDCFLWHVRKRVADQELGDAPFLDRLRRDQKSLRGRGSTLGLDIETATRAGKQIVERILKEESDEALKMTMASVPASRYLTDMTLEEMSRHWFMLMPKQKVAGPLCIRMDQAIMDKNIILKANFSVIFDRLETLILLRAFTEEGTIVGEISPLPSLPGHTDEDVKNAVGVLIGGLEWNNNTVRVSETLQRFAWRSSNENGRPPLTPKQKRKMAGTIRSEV

For `O=C(Nc1ccc(N2CCCCC2)cc1)c1cncc(Br)c1`, the EC50 [1] was > 79.4 µM (not active), the EC50 [2] was > 79.4 µM (not active) and the EC50 [3] was > 79.4 µM (not active). The AC50 (HeLa) was 50.2 µM (active) and the AC50 (Cytochrome P450 2C9 [4]) was 14.1 µM (inconclusive).
With `Cc1ccccc1NC(=O)Cn1nnc2c(cnn2-c2ccc(F)cc2)c1=O` the IC50 [5] was > 64 µM (inactive).
With `Cc1cc(C)c2sc(N(CCCN(C)C)C(=O)c3ccc(S(=O)(=O)N(C)C4CCCCC4)cc3)nc2c1` the EC50 [6] was 0.385 µM (active), the IC50 [7] was 10 µM (active) and the IC50 (Bcl-2-related protein A1) was > 20 µM (inactive). For the same molecule, the EC50 [8] was > 30 µM (not active) and the IC50 [9] was 10.6 µM (active).
For `CCc1ccc(OCC(=O)NNC(=O)c2cc(S(=O)(=O)N(C)C)ccc2N2CCCC2)cc1`, the IC50 [10] was 23.6 µM (active), the IC50 [11] was 47 µM (active) and the IC50 (Prothrombin) was > 100 µM (inactive).
With `O=S(=O)(N[C@@H]1CC[C@H](CCn2cc(-c3ccccn3)nn2)O[C@@H]1CO)c1cccc(F)c1` the AC50 [12] was 79.4 µM (active).
With `Cc1ccc2c(c1)C1CN(C)CCC1N2S(=O)(=O)c1ccc(Oc2ccc([N+](=O)[O-])cc2)cc1` (centres undefined) the IC50 (Nonstructural protein 1) was > 100 µM (active).
With `Cc1cc(Nc2ccccc2)n(-c2nc3ccccc3[nH]2)n1` the EC50 [13] was 2.16 µM (active), the IC50 (cells) was 1.07 µM (active) and the CC50 [14] was 38 µM (active). For the same molecule, the CC50 [15] was 18.8 µM (active) and the EC50 (Streptococcus) was 5.5 µM (active).
With `CN(C)c1nc(SCC#N)nc(N2CCOCC2)n1` the AC50 (Escherichia coli) was 66.1 µM (active).
In the case of `CC(C)(C)c1ccc(-c2nc(C#N)c(NCCCn3ccnc3)o2)cc1`, the IC50 (cells) is reported as 25.4 µM (active) and the CC50 [15] is reported as > 20 µM (active).
In the case of `O=C(CSc1nnc(CNc2ccccc2)o1)N1CCc2ccccc21`, the IC50 [5] is reported as > 64 µM (inactive).
For `Oc1nc2ccccc2n1C1CCN(C(c2nnnn2-c2ccc3c(c2)OCCO3)C2CC2)CC1` (centres undefined), the IC50 [16] was 40.9 µM (inactive).
In the case of `Cc1nc2ccccc2n1C1CCN(CC(=O)Nc2ccccc2Br)CC1` [ASN06356088], the IC50 [7] is reported as > 20 µM (inactive), the IC50 (Bcl-2-related protein A1) is reported as > 20 µM (inactive) and the IC50 [9] is reported as 16.4 µM (active).
In the case of `O=C(N[C@@H]1CC[C@@H](CCn2cc(-c3ccccn3)nn2)O[C@H]1CO)c1ccncc1`, the AC50 [12] is reported as 72.8 µM (active).
With `C#CCOCCOCCOCCNc1nc(N2CCN(C(=O)[C@H](CCCCN)n3cc(CN)nn3)CC2)nc(N2CCN(C(=O)[C@H](CCCCN)n3cc(CN)nn3)CC2)n1` the IC50 [17] was 203 µM (active), the IC50 [7] was 5.15 µM (active) and the IC50 (Bcl-2-related protein A1) was > 20 µM (inactive). For the same molecule, the IC50 [9] was 5.36 µM (active).
With `OC1(c2ccccc2Cl)NN=C2CCCCCN21` (centres undefined) the AC50 (Escherichia coli) was 26 µM (active).
For `COc1cccc(CN2CCN(Cc3cc(OC)c(OC)cc3[N+](=O)[O-])CC2)c1.O=C(O)C(=O)O`, the IC50 [17] was 56.8 µM (active), the AC50 (Cytochrome P450 1A2) was 14.1 µM (inconclusive) and the EC50 [18] was > 53 µM (inactive). The IC50 [19] was > 47.1 µM (inactive), the AC50 (Escherichia coli) was > 150 µM (inactive) and the AC50 (Cytochrome P450 2C9 [20]) was “inconclusive”.
For `C=Cc1ccc(Cn2c(C(=O)O)c(C=O)c3ccccc32)cc1`, the IC50 [10] was > 100 µM (inactive), the IC50 [11] was 12.6 µM (active) and the IC50 (Prothrombin) was 39.1 µM (active).
For `CCCCCC(=O)NC(N=C(S)NC1CCS(=O)(=O)C1)C(Cl)(Cl)Cl` (centres undefined), the IC50 [5] was > 64 µM (inactive).
In the case of `CN1CCC(O)(c2cccs2)C(C(=O)c2cccs2)C1` (centres undefined), the IC50 (cells) is reported as 15.4 µM (active) and the CC50 [15] is reported as > 20 µM (active).
With `Cc1nc(Nc2cccc(O)c2)c2c3c(sc2n1)CCC3` the IC50 [16] was > 73.5 µM (inactive) and the CC50 [21] was 12.7 µM (active).
